The record followed here is patent publication US11214803B2, “Modulators of YAP1 expression” (Ionis Pharmaceuticals, Inc., priority 2019, dated 2022).

Strand notation (5' to 3'): a small letter for the sugar, then the base; units joined by * are phosphorothioate-linked, units joined directly phosphodiester-linked; [ ] holds rarer units or linkages, { } end groups; capitals alone tell only the bases. e = 2'-O-(2-methoxyethyl) (MOE); k = constrained ethyl (cEt); [5mC] = 5-methylcytosine; d = 2'-deoxy (DNA); m = 2'-O-methyl

This series concerns Yap1 mRNA. Description: Antisense inhibition of human Yap1 in SNU-449 cells by modified oligonucleotides, single dose (Example 5, RTS36584). It is filed as cell-based. In short, it runs like this:
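Values are % of untreated control: Yap1 mRNA by quantitative RT-PCR (RTS36584), normalized to RIBOGREEN total RNA. Oligonucleotides were dosed at 2,000 nM, free uptake, in SNU-449 cells, with roughly 48 h exposure before RNA isolation.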

The mark [1] stands for this setting: Table 40 (separate experiment), SNU-449 cells, 10,000 cells per well, free uptake, 2,000 nM oligonucleotide, approx. 48 hours, RTS36584, normalized to RIBOGREEN, Yap1 mRNA relative to untreated control.
Where [2] appears, read: Table 39, SNU-449 cells, 10,000 cells per well, free uptake, 2,000 nM oligonucleotide, approx. 48 hours, RTS36584, normalized to RIBOGREEN, Yap1 mRNA relative to untreated control.
The mark [3] stands for this setting: Table 45, Yap1 mRNA as percent of untreated control, SNU-449 cells, single dose.
Where [4] appears, read: Table 48, Yap1 mRNA level relative to untreated control, modified oligonucleotides targeting SEQ ID NO.: 1 and 2.
The mark [5] stands for this setting: Table 51, Yap1 mRNA remaining as percent of untreated control (UT), SNU-449 cells, single dose.
Setting [6] is: Table 50, Yap1 mRNA remaining as percent of untreated control (UT), SNU-449 cells, single dose.
Setting [7] is: Yap1 mRNA, percent of untreated control, modified oligonucleotides targeting SEQ ID NO: 1 and 2, Table 47.
Setting [8] is: Table 44 experiment, SNU-449 cells, 10,000 cells per well, free uptake, 2,000 nM, approximately 48 hours, RTS36584, Yap1 mRNA normalized to RIBOGREEN, relative to untreated control cells.
The mark [9] stands for this setting: Table 41, SNU-449 cells, 10,000 cells per well, free uptake, 2,000 nM modified oligonucleotide, approximately 48 hours, RTS36584, normalized to RIBOGREEN, Yap1 mRNA relative to untreated control cells.
The mark [10] stands for this setting: Table 49, Yap1 mRNA level relative to untreated control, modified oligonucleotides targeting SEQ ID NO.: 1 and 2.
Setting [11] is: Table 52, Yap1 mRNA, modified oligonucleotides targeting SEQ ID NO: 1 and 2.

Take “1198443 (kT*dT*dA*dA*dA*dG*dT*dG*dT*dA*dT*kG*eT*k[5mC]*eA*kG; antisense) [Compound 1198443]”: under setting [1], the “YAP1 (% UTC)” value was 39 % UTC.

Consider “1198811 (antisense kA*kT*dG*dG*dA*dA*dA*dT*dT*dG*dT*k[5mC]*eT*k[5mC]*eA*kT) [Compound 1198811]”, for which, where the note is “Table 46, Yap1 mRNA as percent of untreated control, SNU-449 cells, single dose”, the “YAP1 (% UT)” value is recorded as 38 % UT.

On to “1198418 (kT*d[5mC]*dA*dG*dA*dT*dT*dT*dA*dG*dG*kA*eT*kG*e[5mC]*kA; antisense) [Compound 1198418]”, for which the “YAP1 (% UTC)” value under setting [2] stood at 67 % UTC.

As for “1198465 (antisense kA*kG*dT*dA*dT*dG*dT*dG*dG*d[5mC]*dA*eA*kT*eA*kA*eT) [Compound 1198465]”, for the setting “Table 43 experiment, SNU-449 cells, 10,000 cells per well, free uptake, 2,000 nM, approximately 48 hours, RTS36584, Yap1 mRNA normalized to RIBOGREEN, relative to untreated control cells”, the “YAP1 (% UTC)” value is on record as 68 % UTC.

Consider “1198909 (kG*kG*dT*dA*dT*dA*dA*d[5mC]*dT*dG*dG*kG*d[5mC]*kA*dA*kA; antisense) [Compound 1198909]”, for which the “YAP1 (% UTC)” value under setting [3] is listed as 56 % UTC.

Consider “1198344 (kA*kT*kA*dT*dT*dG*d[5mC]*dA*dA*dT*d[5mC]*dT*kG*eT*k[5mC]*eT; antisense) [Compound 1198344]”, for which, under setting [4], the “YAP1 (% UT)” value amounted to 55 % UT.

In the case of “1197242 (antisense k[5mC]*kA*k[5mC]*dT*mG*dA*dG*dG*dT*dA*dT*dA*dA*k[5mC]*kT*kG) [Compound 1197242]”, the “YAP1 (% UT)” value under setting [5] was 46 % UT.

For the substance “1198704 (kA*kA*d[5mC]*dT*dT*dT*dA*dA*dA*dG*dT*dG*kT*eA*kT*eG; antisense) [Compound 1198704]”, under “Table 42 (separate experiment), SNU-449 cells, 10,000 cells per well, free uptake, 2,000 nM modified oligonucleotide, approximately 48 hours, RTS36584, normalized to RIBOGREEN, Yap1 mRNA relative to untreated control cells”, the “YAP1 (% UTC)” value stood at 72 % UTC.

With “1198624 (kA*k[5mC]*kT*dA*dA*dG*dT*dA*dA*dG*dG*dT*kT*kT*k[5mC]*e[5mC]; antisense) [Compound 1198624]”, the “YAP1 (% UT)” value under setting [6] was determined as 20 % UT.

With “1198878 (kT*kT*dT*dA*dA*dA*dG*dT*dG*dT*dA*kT*eG*kT*e[5mC]*kA; antisense) [Compound 1198878]”, under setting [7], the “YAP1 (% UT)” value is 42 % UT.

On to “1198506 (kA*kT*dA*dT*dG*dG*dT*dT*dT*dT*dG*eT*kG*eT*kG*eT; antisense) [Compound 1198506]”, for which the “YAP1 (% UTC)” value under setting [8] turned out to be 47 % UTC.

For the substance “1198445 (k[5mC]*dT*dT*dT*dA*dA*dA*dG*dT*dG*dT*kA*eT*kG*eT*k[5mC]; antisense) [Compound 1198445]”, the “YAP1 (% UTC)” value under setting [1] is on record as 61 % UTC.

Consider “1197189 (antisense kT*kT*kT*dG*dG*dA*dA*dG*dA*dT*d[5mC]*dT*dG*kA*kA*kA) [Compound 1197189]”, for which the “YAP1 (% UT)” value under setting [7] was found to be 71 % UT.

On to “1197193 (antisense AGGATGCATGGTTTTT; chemistry not fully specified) [Compound 1197193]”, for which the “YAP1 (% UT)” value under setting [7] is 15 % UT.

Regarding “1198691 (antisense kG*kT*dA*dA*dT*dA*dT*dT*dG*d[5mC]*dA*dA*kT*e[5mC]*kT*eG) [Compound 1198691]”, the “YAP1 (% UTC)” value under setting [9] stood at 38 % UTC.

Regarding “1198345 (kA*kA*kT*dA*dT*dT*dG*d[5mC]*dA*dA*dT*d[5mC]*kT*eG*kT*e[5mC]; antisense) [Compound 1198345]”, under setting [4], the “YAP1 (% UT)” value is reported as 75 % UT.

Consider “1198598 (antisense kA*kA*k[5mC]*dT*d[5mC]*dT*dT*dA*dT*dA*dT*dG*kG*kT*kT*eT) [Compound 1198598]”, for which the “YAP1 (% UT)” value under setting [6] is recorded as 76 % UT.

Turning to “1198618 (antisense kA*kA*k[5mC]*dT*dT*dT*dA*dA*dA*dG*dT*dG*kT*kA*kT*eG) [Compound 1198618]”, under setting [6], the “YAP1 (% UT)” value amounted to 74 % UT.

Regarding “1095397 (antisense kT*dG*dA*dG*dG*dT*dA*dT*dA*dA*d[5mC]*kT*eG*kG*eG*k[5mC]) [Compound 1095397]”, the “YAP1 (% UTC)” value under setting [2] was determined as 53 % UTC.

Turning to “1198555 (antisense kA*kT*kT*dA*dG*dA*dG*dT*dA*dT*dG*dT*kG*kG*k[5mC]*eA) [Compound 1198555]”, the “YAP1 (% UT)” value under setting [10] stood at 11 % UT.

Take “1197186 (antisense kT*kT*kA*dA*dG*d[5mC]*dA*d[5mC]*dT*dT*dT*dT*dA*k[5mC]*kA*kT) [Compound 1197186]”: under setting [7], the “YAP1 (% UT)” value is recorded as 65 % UT.

Regarding “1198302 (kT*kA*kT*dA*dA*d[5mC]*dT*dG*dG*dG*d[5mC]*dA*kA*eA*kT*eT; antisense) [Compound 1198302]”, the “YAP1 (% UT)” value under setting [10] was found to be 67 % UT.

As to “1198488 (antisense kG*kG*dA*dA*dG*dA*dT*d[5mC]*dT*dG*dA*eA*kA*e[5mC]*kT*e[5mC]) [Compound 1198488]”, the “YAP1 (% UTC)” value under setting [8] came out at 66 % UTC.

For the substance “1198522 (kT*kA*dT*dG*dT*dA*dA*dT*dA*dT*dT*eG*k[5mC]*eA*kA*eT; antisense) [Compound 1198522]”, the “YAP1 (% UTC)” value under setting [8] was found to be 37 % UTC.

Regarding “1198802 (antisense kA*eG*kA*d[5mC]*dT*dA*dA*dG*dT*dA*dA*dG*eG*eT*kT*kT) [Compound 1198802]”, the “YAP1 (% UTC)” value under setting [1] came to 83 % UTC.

Take “1200847 (kA*kT*kT*dG*d[5mC]*mA*dA*dT*d[5mC]*dT*dG*dT*d[5mC]*kT*kG*kA; antisense) [Compound 1200847]”: the “YAP1 (% UT)” value under setting [11] turned out to be 54 % UT.

Turning to “1200854 (kT*kA*kT*dG*dT*mA*dA*dT*dA*dT*dT*dG*d[5mC]*kA*kA*kT; antisense) [Compound 1200854]”, the “YAP1 (% UT)” value under setting [11] was 91 % UT.

As for “1200815 (k[5mC]*kA*k[5mC]*dT*dT*mU*dT*dA*d[5mC]*dA*dT*dT*dA*kG*kG*kA; antisense) [Compound 1200815]”, the “YAP1 (% UT)” value under setting [11] came to 55 % UT.

Turning to “1198873 (kA*kG*dT*dG*dT*dA*dT*dG*dT*d[5mC]*dA*kG*eA*kA*eG*kA; antisense) [Compound 1198873]”, under setting [7], the “YAP1 (% UT)” value stood at 4 % UT.

Consider “1198756 (kG*eT*kG*d[5mC]*dT*dT*dT*dG*dG*dA*dA*dG*eA*eT*k[5mC]*kT; antisense) [Compound 1198756]”, for which the “YAP1 (% UTC)” value under setting [1] turned out to be 50 % UTC.

“1198687 (antisense kA*kT*dT*dG*d[5mC]*dA*dA*dT*d[5mC]*dT*dG*dT*k[5mC]*eT*kG*eA) [Compound 1198687]”: the “YAP1 (% UTC)” value under setting [9] is given as 55 % UTC.

Take “1200790 (kT*kG*kG*dA*dA*mA*dT*dT*dG*dT*d[5mC]*dT*d[5mC]*kA*kT*kG; antisense) [Compound 1200790]”: the “YAP1 (% UT)” value under setting [11] is on record as 33 % UT.

Take “1198876 (kT*kA*dA*dA*dG*dT*dG*dT*dA*dT*dG*kT*e[5mC]*kA*eG*kA; antisense) [Compound 1198876]”: the “YAP1 (% UT)” value under setting [7] came out at 31 % UT.

As to “1198519 (kG*kT*dA*dA*dT*dA*dT*dT*dG*d[5mC]*dA*eA*kT*e[5mC]*kT*eG; antisense) [Compound 1198519]”, under setting [8], the “YAP1 (% UTC)” value is given as 20 % UTC.

Regarding “1197313 (kA*kG*kT*dG*mU*dA*dT*dG*dT*d[5mC]*dA*dG*dA*kA*kG*kA; antisense) [Compound 1197313]”, the “YAP1 (% UT)” value under setting [5] amounted to 8 % UT.

“1197246 (antisense kA*kG*k[5mC]*dA*mC*dT*dT*dT*dT*dA*d[5mC]*dA*dT*kT*kA*kG) [Compound 1197246]”: under setting [6], the “YAP1 (% UT)” value turned out to be 33 % UT.

Take “1198965 (k[5mC]*kT*dT*dT*dA*dA*dA*dG*dT*dG*dT*kA*dT*kG*dT*k[5mC]; antisense) [Compound 1198965]”: under setting [3], the “YAP1 (% UTC)” value stood at 95 % UTC.

With “1198656 (kG*k[5mC]*dA*d[5mC]*dT*dT*dT*dT*dA*d[5mC]*dA*dT*kT*eA*kG*eG; antisense) [Compound 1198656]”, the “YAP1 (% UTC)” value under setting [9] worked out at 11 % UTC.

In the case of “1096369 (antisense kG*kT*kG*d[5mC]*dT*dT*dT*dG*dG*dA*dA*dG*dA*kT*k[5mC]*kT) [Compound 1096369]”, the “YAP1 (% UT)” value under setting [7] was 45 % UT.

As to “1200799 (kA*kT*kA*dT*dT*mA*dG*dA*dG*dT*dA*dT*dG*kT*kG*kG; antisense) [Compound 1200799]”, the “YAP1 (% UT)” value under setting [5] worked out at 27 % UT.

“1198453 (kG*dA*d[5mC]*dT*dA*dA*dG*dT*dA*dA*dG*kG*eT*kT*eT*k[5mC]; antisense) [Compound 1198453]”: the “YAP1 (% UTC)” value under setting [2] is recorded as 48 % UTC.

Regarding “1198730 (kT*eA*kT*dA*dT*dT*dA*dG*dA*dG*dT*dA*eT*eG*kT*kG; antisense) [Compound 1198730]”, the “YAP1 (% UTC)” value under setting [1] is listed as 57 % UTC.

For “1198954 (kT*kG*dT*dA*dA*dT*dA*dT*dT*dG*d[5mC]*kA*dA*kT*d[5mC]*kT; antisense) [Compound 1198954]”, the “YAP1 (% UTC)” value under setting [3] is on record as 94 % UTC.

Take “1198370 (kT*dG*dT*d[5mC]*dT*d[5mC]*dA*dT*dG*d[5mC]*d[5mC]*kT*eT*kA*eT*kA; antisense) [Compound 1198370]”: the “YAP1 (% UTC)” value under setting [2] amounted to 20 % UTC.

Take “1198915 (k[5mC]*kT*dT*dT*dT*dA*d[5mC]*dA*dT*dT*dA*kG*dG*kA*dA*k[5mC]; antisense) [Compound 1198915]”: the “YAP1 (% UTC)” value under setting [3] came to 37 % UTC.
